Reference: patent EP0828750B1, “PALLADIUM CATALYZED NUCLEOSIDE MODIFICATION METHODS USING NUCLEOPHILES AND CARBON MONOXIDE” (EC Technology LLC, priority 1995, dated 1996)

Tests used:
[1] = system: human foreskin fibroblasts (HFF); assay: Cytotoxicity assay (IC50 determination), crystal violet staining; type: cell-based; conditions: Fibroblast, 336 h, concentration required to inhibit cellular proliferation by 50%, 96-well, 14 day incubation, crystal violet absorbance 620nm
Procedure: (§1) Newborn human foreskins were obtained immediately post-circumcision and placed in minimal essential medium (MEM) supplemented with vancomycin, fungizone, penicillin and gentamycin (all present at standard concentrations) and maintained for four hours under tissue culture conditions (37°C, 5% CO2). Supplemented MEM was then removed and the foreskin material macerated. Tissue fragments were then washed exhaustively (using supplemented MEM) to remove residual erythrocyte contamination.
The erythrocyte-free cell fragments were then exposed to trypsin solution (0.25%) for 15 min with continuous stirring. […]
HFF were seeded into 96-well tissue culture plates at a concentration of 2.5x10^4 cells/ml (100µl MEM with 10% FBS was used as the culture medium) and maintained under tissue culture conditions for 24H prior to experimentation. […] To the first row of each 96-well plate, 125 µl of control media or experimental drug CT1146-26 or CT1146-28 (initial concentration determined by the overall concentration range desired) was added in triplicate wells. […]
Following the incubation period, medium was removed from all wells and the cells stained with 0.1% crystal violet solution for 30 min followed by several wash cycles to remove residual stain. The crystal violet stained plates were then allowed to air dry for 24H prior to reading well absorbance values (620nm) using a Skatron plate reader. […]

[2] = system: human cytomegalovirus (CMV); assay: Plaque reduction assay using semi-solid overlay (EC50 determination); type: cell-based; conditions: for EC50: Human betaherpesvirus 5, 336 h, concentration required to inhibit viral cytopathogenicity by 50%, CMV plaques in HFF, agarose overlay, 14 days, drug range 100 to 0.03 µg/ml; for SI: Selectivity Index, SI = IC50/EC50
Procedure: as §1
The erythrocyte-free cell fragments were then exposed to trypsin solution (0.25%) for 15 min with continuous stirring. Tissue fragments were then allowed to settle out of suspension and the supernatant collected and passed through sterile cheesecloth into a flask containing MEM and 10% fetal bovine serum (FBS). The cheesecloth was washed with an additional volume of MEM containing 10% FBS (The flask containing MEM and 10% FBS was maintained on ice throughout the trypsinization procedure). The trypsinization procedure was repeated using fresh trypsin solution, until no additional cell removal from tissue fragments was observed. Cells removed by this process are predominantly human foreskin fibroblasts (HFF).
Cells contained in MEM with 10% FBS were pelleted by centrifugation (≅ 1000 RPM, 4°C, 10 min), the supernatant discarded and the pelleted cells suspended in a minimal volume of MEM with 10% FBS. HFF isolates were then plated into T-25 tissue culture flasks (the number of primary culture flasks used was based on the volume of the recovered cell pellet). HFF isolates were then maintained under tissue culture conditions (37°C, 5% CO2) until confluent. Primary cultures of HFF were sequentially expanded into larger format culture flasks using standard tissue culture procedures. HFF were maintained in the presence of vancomycin and fungizone through passage four.
HFF are plated into 6-well tissue culture plates and maintained under tissue culture conditions for approximately two days prior to use. On the date of assay, experimental drug solutions are prepared as 2X concentrations in 2X MEM. Serial dilutions of experimental drug are then performed (1:5) using 2X MEM. The approximate concentration range for experimental agents being 200 to 0.06 µg/ml. Each drug or control solution was then diluted 1:1 with 0.8% agarose solution. Following dilution with agarose solution, the final experimental drug concentration range was 100 to 0.03 µg/ml, with a final agarose overlay concentration of 0.4%. Viral material (CMV) was diluted in MEM with 10% FBS to yield a concentration of virus producing 20-30 plaques per well. […]
Following incubations, HFF were stained for 4-6H with a 1.5% solution of neutral red. The neutral red/agarose/MEM mixture is aspirated and viral plaques counted using a 10X steriomicroscope. […]

Row | Structure (SMILES) | IC50 [1] | EC50 [2] | SI [2]
1 | CC(C)NC(=O)c1cn(C2OC(COP(=O)(O)O)C(O)C2O)c(=O)nc1N (stereo not drawn) [CT1146-26] | > 100 µg/mL | < 0.03 µg/mL | > 3333
2 | CCCCNC(=O)c1cn(C2OC(COP(=O)(O)O)C(O)C2O)c(=O)nc1N (stereo not drawn) [CT1146-28] | > 100 µg/mL | < 0.03 µg/mL | > 3333
